Laboratory results published in patent publication EP0170024A2, “Use of 2-acylaminomethyl-1,4-benzodiazepine derivatives for the production of pharmaceutical compositions and process for the preparation for pharmaceutical compositions” (priority 1984, dated 1986).
Read-outs that look alike come from different tables or passages of the source.

Experiments:
[1] = biological target: T1, CCK receptor (pancreas) (Rattus norvegicus, UniProt P30551); experiment: CCK receptor binding (pancreas), 125I-CCK-33 receptor binding assay; conditions: for IC50: inhibition of 50% of the 125I-CCK binding, rat pancreas membranes, 37°C, 30 minutes
T1 construct: The whole pancreas of a male Sprague-Dawley rat (200-350 g), which had been sacrificed by decapitation, was dissected free of fat tissue and homogenized; from tissue; host or cells: rat pancreas membrane homogenate
T1 sequence (P30551 1-444): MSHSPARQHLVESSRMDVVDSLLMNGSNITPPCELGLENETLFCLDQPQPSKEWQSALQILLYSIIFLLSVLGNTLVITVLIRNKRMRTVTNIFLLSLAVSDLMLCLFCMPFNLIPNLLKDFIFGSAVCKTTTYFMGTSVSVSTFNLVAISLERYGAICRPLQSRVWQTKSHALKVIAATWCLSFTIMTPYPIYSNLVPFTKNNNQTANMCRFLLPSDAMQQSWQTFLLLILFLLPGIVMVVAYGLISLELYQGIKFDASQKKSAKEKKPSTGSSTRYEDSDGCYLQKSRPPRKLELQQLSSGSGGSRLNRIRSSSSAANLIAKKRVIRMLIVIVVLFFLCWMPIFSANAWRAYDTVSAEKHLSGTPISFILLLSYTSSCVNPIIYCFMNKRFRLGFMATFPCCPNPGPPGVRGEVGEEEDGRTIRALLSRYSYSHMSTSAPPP
Text: Screening of these known compounds to determine biological activity and obtain an IC50 value for them to identify significant CCK-antagonism may be accomplished using an 125I-CCK receptor binding assay and in vitro isolated tissue preparations. These tests involve the following: • CCK receptor binding (pancreas) method
CCK-33 was radiolabeled with ^125I-Bolton Hunter reagent (2000 Ci/mmole), as described by Sankara et al. (J. Biol. Chem., 254, 9349-9351, 1979).
The whole pancreas of a male Sprague-Dawley rat (200-350 g), which had been sacrificed by decapitation, was dissected free of fat tissue and homogenized in 20 volumes of ice-cold 50 mM Tris HC1 (pH 7.7 at 25°C) with a Brinkmann Polytron PT-10. The homogenates were centrifuged at 48,000g for 10 minutes, then the resulting pellets were resuspended in Tris Buffer, centrifuged as above, and resuspended in 200 volumes of binding assay buffer (50 mM Tris HC1, pH 7.7 at 25°C, 5 mM dithiothreitol, 0.1 mM bacitracin, 1.2 mM phenylmethane sulfonyl fluoride and 0.5 mM o-phenanthroline).
All assays were run in duplicate or triplicate, and the reaction mixtures were incubated at 37°C for 30 minutes and centrifuged in a Beckman Microfuge (4 minutes) immediately after adding 1 ml of ice-cold incubation buffer. The supernatant was aspirated and discarded, and the pellets were counted with a Beckman gamma 5000.

[2] = tested on: CCK-8 response in guinea pig gall bladder; experiment: Isolated guinea pig gall bladder, CCK-8 contractile response; conditions: compound at 2 uM, added at least 5 minutes before CCK-8
Procedure: Isolated guinea pig gall bladder method
The two halves of the gall bladders, free of adjacent tissue, of male Hartley guinea pigs (400-600 q), which had been sacrificed by ? were suspended under 1 g tension along the axis of the bile duct in 5 ml organ bath, containing a Kreb's bicarbonate solution of 118 mM NaCl, 4.75 mM KC1, 2.54 CaCl2, 1.19 mM KH2PO4, 1.2 mM MgS04, 25 mM NaHC03 and 11 mM dextrose, which is maintained at 32°C and bubbled with a mixture of 95% 02 and 5% C02. The tissues were washed every 10 minutes for 1 hour to obtain equilibrium prior to the beginning of the study and the isometric contractions of the strips were recorded using Statham (60 g:0.12 mm) strain gauges and a Hewlett-Packard 77588 recorder.
CCK-8 was added cumulatively to the baths and the EC50's were determined using regression analysis. After washout (every 10 minutes-for 1 hour), the compound to be tested was added at least 5 minutes before the addition of CCK-8 and the EC50 of CCK-8 in the presence of the compound to be tested was also simillarly determined.

[3] = read-out: IC50 (µM) CCK Pancreas

SMILES | IC50 ([1]; IC50 (µM) CCK Pancreas) [µM] | IC50 [1, 3] [µM] | further results
CN1c2ccccc2C(c2ccccc2F)=NCC1CNC(=O)c1ccsc1 (racemic) [Compound 2, (±)-1-methyl-2-(thiophene-3-carbonyl) aminomethyl-5-(2'-fluorophenyl)-2,3-dihydro-l,4-benzodiazepine] | 0.2 |  | mechanism of inhibition of specific 125I-CCK-33 receptor binding (Scatchard analysis) ([1]; absence and presence of 0.2 µM of compound, increased the KD without affecting the Bmax): competitively inhibited specific ^125I-CCK-33 receptor binding; effect on CCK dose response curve [2]: parallel shift to the right of the CCK dose response curve without reduction of the maximal contractile response
CN1c2ccccc2C(c2ccccc2F)=NCC1CNC(=O)c1ccsc1 (single isomer, unassigned; (+)) [Compound 6, (+)-1-methyl-2-(thiophene-3-carbonyl)aminomethyl-5-(2-fluorophenyl)-lH-2,3-dihydro-1,4-benzodiazepine] | 13.9 |  | 
CN1c2ccccc2C(c2ccccc2F)=NCC1CNC(=O)c1ccsc1 (single isomer, unassigned; (-)) [Compound 1, (-)-1-methyl-2-(thiophene-3-carbonyl)aminomethyl-5-(2'-fluorophenyl)-1H-2,3-dihydro-1,4-benzodiazepine] | 0.1 |  | 
CN1c2ccccc2C(c2ccccc2F)=NCC1CNC(=O)c1ccc(Cl)cc1 (stereo not drawn) [Compound 3, l-methyl-2-(4'-chlorophenylcarbonyl) aminomethyl-5-(2'-fluorophenyl)-3H-2,3-dihydro-1,4-benzodiazepine] |  | 0.8 | 
CN1c2ccccc2C(c2ccccc2F)=NCC1CNC(=O)c1ccccc1F (stereo not drawn) [Compound 4, l-methyl-2-(2-fluorophenyl-carbonyl)aminomethyl-5-(2'-fluorophenyl)-lH-2,3-dihydro-1,4-benzodiazepine] |  | 2.9 | 
CN1c2ccccc2C(c2ccccc2F)=NCC1CN1C(=O)c2ccccc2C1=O (stereo not drawn) [Compound 5, [(1-methyl-5-(2'-fluorophenyl)-lH-l,4-benzopin-2-yl)methyl]-lH-isoindole-1,3-(2H)-dione] |  | 4.3 | 
CN1c2ccccc2C(c2ccccc2F)=NCC1CNC(=O)c1cccnc1 (stereo not drawn) [Compound 7, 1-methyl-2-(pyridine-3-carbonyl)aminomethyl-5-(2'-fluorophenyl)-1H-2,3-dihydro-1,4-benzodiazepine] |  | 10 | 
